Key:
BCRP = biological target: T1, BCRP (Homo sapiens, UniProt Q9UNQ0); experiment: BCRP fluorimetric inhibition assay, Hoechst 33342 substrate, recombinant CHO-K1 cells; assay type: cell-based; settings: Hoechst 33342 (5 μm) substrate, 20 min at 37° C., fluorimetry
T1 construct: expressed in transfected cells; host or cells: CHO-K1
T1 sequence (Q9UNQ0 1-655): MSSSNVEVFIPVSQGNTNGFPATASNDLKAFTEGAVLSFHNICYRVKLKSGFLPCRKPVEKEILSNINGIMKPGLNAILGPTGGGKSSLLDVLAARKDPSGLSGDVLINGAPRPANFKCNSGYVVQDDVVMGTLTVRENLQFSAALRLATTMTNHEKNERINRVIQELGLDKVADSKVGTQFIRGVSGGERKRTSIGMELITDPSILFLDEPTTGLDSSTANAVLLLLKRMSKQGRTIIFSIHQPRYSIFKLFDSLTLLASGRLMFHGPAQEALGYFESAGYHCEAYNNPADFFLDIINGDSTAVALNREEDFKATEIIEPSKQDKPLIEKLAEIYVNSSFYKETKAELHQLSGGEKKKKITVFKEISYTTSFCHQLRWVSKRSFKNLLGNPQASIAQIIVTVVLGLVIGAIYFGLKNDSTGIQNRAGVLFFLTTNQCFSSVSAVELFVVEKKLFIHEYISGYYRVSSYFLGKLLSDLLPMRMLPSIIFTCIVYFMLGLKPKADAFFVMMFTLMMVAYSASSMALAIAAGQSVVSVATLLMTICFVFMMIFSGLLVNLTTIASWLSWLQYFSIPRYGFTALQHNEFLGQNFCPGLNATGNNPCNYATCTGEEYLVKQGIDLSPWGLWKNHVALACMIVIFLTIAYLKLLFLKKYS
Experimental: The IC-50 value of OBR 5-340 and MS 112 were determined according to the method described by Paturi D. K, et al in Int. J. Pharm. (2010), 384: 32-38. The source used for the determination was human recombinant CHO-K1 cells, while Hoechst 33342 (5 μm) was used as the substrate. The cells were incubated for 20 min at 37° C. and the detection was accomplished by fluorimetry.
Fluorimetric Inhibition Assay:
The percent of control is calculated using the following equation.
In this formula, “Compound” is the individual reading in the presence of the test compound. “T1” is the mean reading in the absence of the test compound. Background is the mean reading in the presence of the highest effective concentration of the reference inhibitor.
The percent of inhibition is calculated by subtracting the percent of control from 100. The IC50 value (concentration causing a half-maximal inhibition of the control value) is determined by non-linear regression analysis of the concentration-response curve using the Hill equation.

CYP3A = experiment: Cytochrome P450 inhibition (DMPK studies); assay type: in vitro ADME
Text: (§1) Also no induction of CYP1A2, CYP2B6, and CYP3A4 could be found.

CYP2C8 = biological target: T2, CYP2C8 (Homo sapiens, UniProt P10632); experiment: Cytochrome P450 inhibition (DMPK studies); assay type: in vitro ADME
T2 sequence (P10632 1-490): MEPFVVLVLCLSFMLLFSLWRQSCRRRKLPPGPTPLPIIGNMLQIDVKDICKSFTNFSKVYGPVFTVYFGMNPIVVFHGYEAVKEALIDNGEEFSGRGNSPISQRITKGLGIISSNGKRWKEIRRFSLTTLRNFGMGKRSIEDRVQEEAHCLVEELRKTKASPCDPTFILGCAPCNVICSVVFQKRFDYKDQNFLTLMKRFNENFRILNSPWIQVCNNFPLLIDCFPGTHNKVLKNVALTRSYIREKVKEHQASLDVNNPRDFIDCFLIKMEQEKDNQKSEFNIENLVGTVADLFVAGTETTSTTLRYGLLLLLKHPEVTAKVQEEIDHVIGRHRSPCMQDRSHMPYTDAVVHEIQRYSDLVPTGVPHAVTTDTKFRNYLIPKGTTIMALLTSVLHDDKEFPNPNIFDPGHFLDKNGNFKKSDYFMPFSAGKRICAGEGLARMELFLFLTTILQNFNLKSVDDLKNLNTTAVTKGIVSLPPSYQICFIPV
Text: as §1

CYP2C9 = CYP2C9 (Homo sapiens, UniProt P11712); experiment: Cytochrome P450 inhibition (DMPK studies); assay type: in vitro ADME
CYP2C9, sequence (P11712 whole entry): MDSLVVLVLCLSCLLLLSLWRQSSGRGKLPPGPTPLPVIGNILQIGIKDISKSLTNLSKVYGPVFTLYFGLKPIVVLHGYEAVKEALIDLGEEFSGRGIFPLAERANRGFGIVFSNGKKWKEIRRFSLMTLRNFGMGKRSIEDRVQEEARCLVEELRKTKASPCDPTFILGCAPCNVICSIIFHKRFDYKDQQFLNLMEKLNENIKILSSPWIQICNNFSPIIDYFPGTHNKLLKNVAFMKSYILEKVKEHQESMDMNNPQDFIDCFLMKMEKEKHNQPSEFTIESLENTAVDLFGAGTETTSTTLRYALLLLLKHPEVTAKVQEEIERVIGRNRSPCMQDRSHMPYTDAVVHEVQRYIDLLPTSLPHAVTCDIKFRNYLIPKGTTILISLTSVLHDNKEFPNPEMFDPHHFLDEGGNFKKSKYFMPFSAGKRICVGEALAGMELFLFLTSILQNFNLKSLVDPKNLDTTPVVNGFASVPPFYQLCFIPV
Text: as §1

CYP2D6 = CYP2D6 (Homo sapiens, UniProt P10635); experiment: Cytochrome P450 inhibition (DMPK studies); assay type: in vitro ADME
CYP2D6, sequence (P10635 whole entry): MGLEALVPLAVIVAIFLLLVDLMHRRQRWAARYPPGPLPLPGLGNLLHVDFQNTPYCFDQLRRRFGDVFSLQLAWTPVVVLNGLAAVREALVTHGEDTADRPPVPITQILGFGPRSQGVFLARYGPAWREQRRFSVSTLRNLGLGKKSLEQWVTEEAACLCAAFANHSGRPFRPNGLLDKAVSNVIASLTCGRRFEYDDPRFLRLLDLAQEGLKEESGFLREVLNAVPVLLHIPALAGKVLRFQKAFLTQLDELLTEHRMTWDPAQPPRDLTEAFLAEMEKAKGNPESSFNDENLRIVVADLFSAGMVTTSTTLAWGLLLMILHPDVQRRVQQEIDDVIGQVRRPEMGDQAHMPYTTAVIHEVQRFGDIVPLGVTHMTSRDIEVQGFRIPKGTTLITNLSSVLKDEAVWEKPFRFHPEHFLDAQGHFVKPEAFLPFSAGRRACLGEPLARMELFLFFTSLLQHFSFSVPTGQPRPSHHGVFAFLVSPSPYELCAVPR
Text: as §1

CYP2C19 = CYP2C19 (Homo sapiens, UniProt P33261); experiment: Cytochrome P450 inhibition (DMPK studies); assay type: in vitro ADME
CYP2C19, sequence (P33261 whole entry): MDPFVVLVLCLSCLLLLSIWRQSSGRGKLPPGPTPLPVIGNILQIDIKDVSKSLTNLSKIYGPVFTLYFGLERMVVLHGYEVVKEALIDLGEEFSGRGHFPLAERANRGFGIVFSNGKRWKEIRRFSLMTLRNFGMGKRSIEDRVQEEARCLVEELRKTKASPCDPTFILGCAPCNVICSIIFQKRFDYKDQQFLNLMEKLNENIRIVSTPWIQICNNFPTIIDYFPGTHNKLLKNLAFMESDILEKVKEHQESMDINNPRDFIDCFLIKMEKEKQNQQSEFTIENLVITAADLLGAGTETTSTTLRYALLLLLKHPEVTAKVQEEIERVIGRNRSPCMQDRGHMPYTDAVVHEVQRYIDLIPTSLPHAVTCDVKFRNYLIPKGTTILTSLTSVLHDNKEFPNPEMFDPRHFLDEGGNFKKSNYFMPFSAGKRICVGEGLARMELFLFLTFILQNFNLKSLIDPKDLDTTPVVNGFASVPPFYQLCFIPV
Text: as §1

CYP1A = experiment: Cytochrome P450 inhibition (DMPK studies); assay type: in vitro ADME
CYP2B6 [1] = experiment: Cytochrome P450 induction (DMPK studies); assay type: in vitro ADME
Text: as §1

CYP1A2 = experiment: Cytochrome P450 induction (DMPK studies); assay type: in vitro ADME
Text: as §1

CYP3A4 = experiment: Cytochrome P450 induction (DMPK studies); assay type: in vitro ADME
Text: as §1

CYP2B6 [2] = biological target: T3, CYP2B6 (Homo sapiens, UniProt P20813); experiment: Cytochrome P450 inhibition (DMPK studies); assay type: in vitro ADME
T3 sequence (P20813 1-491): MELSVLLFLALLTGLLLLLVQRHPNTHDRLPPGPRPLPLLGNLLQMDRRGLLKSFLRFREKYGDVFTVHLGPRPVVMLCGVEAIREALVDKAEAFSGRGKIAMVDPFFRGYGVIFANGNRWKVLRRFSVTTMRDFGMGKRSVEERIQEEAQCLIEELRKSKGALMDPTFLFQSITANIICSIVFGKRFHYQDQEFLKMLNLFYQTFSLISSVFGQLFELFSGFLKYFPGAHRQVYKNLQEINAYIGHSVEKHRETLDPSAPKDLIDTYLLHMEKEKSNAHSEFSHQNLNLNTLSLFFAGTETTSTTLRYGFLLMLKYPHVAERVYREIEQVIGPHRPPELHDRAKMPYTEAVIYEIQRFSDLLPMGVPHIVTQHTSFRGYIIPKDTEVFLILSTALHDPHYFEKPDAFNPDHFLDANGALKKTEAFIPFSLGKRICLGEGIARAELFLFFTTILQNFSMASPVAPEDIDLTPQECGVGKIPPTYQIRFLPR

| SMILES | IC50 (BCRP) | inhibition of CYP3A (CYP3A) | inhibition of CYP2C8 (CYP2C8) | inhibition of CYP2C9 (CYP2C9) | inhibition of CYP2D6 (CYP2D6) | inhibition of CYP2C19 (CYP2C19) | inhibition of CYP1A (CYP1A) | induction of CYP2B6 (CYP2B6 [1]) | induction of CYP1A2 (CYP1A2) | induction of CYP3A4 (CYP3A4) | inhibition of CYP2B6 (CYP2B6 [2]) |
| --- | --- | --- | --- | --- | --- | --- | --- | --- | --- | --- | --- |
| Nc1nc(-c2ccccc2)nc2[nH]nc(Nc3ccc(C(F)(F)F)cc3)c12 [OBR-5-340, 4-amino-3-(4-trifluormethyl-phenyl)amino-6-phenylpyrazolo[3,4-d]pyrimidine] | 1.7 µM | does not inhibit | does not inhibit | does not inhibit | does not inhibit | does not inhibit | does not inhibit | no induction | no induction | no induction | does not inhibit |
| Nc1nc(-c2ccc(OC(F)(F)F)cc2)nc2[nH]nc(Nc3ccccc3)c12 [MS-112, 4-amino-3-phenylamino-6-[4-(trifluormethoxy)-phenyl]pyrazolo[3,4-d]pyrimidine] | ~100 µM |  |  |  |  |  |  |  |  |  |  |

— patent US10975079B2, “4-amino-3-phenylamino-6-phenylpyrazolo[3,4-d]pyrimidine derivatives for use as BCRP inhibitors in therapeutic treatments” (SCANDION ONCOLOGY A/S, priority 2015, dated 2021)
